Four compounds from patent US20240287138A1, “CYCLIC PEPTIDES FOR INHIBITING TNF RECEPTOR 1 ACTIVITY” (Merck Sharp & Dohme LLC, priority 2023, published 2024) can be followed below.

SMILES strings stand for the structures. pIC50, pKd: −log10 of the molar value. Numbered stars: 1 amine (or outer) side, 2 acyl side, 3 side chain; on linkers, the order of the positions; unused ones are H or OH. Square brackets hold non-standard residues; d marks the D form. Peptide text beside a SMILES is read from it. * marks the point of attachment. Trp(βS-Me,7-OMe) = COc1cccc2c([C@H](C)[C@H](N)C(=O)O)c[nH]c12; dPro(trans-4-NMe3+) = C[N+](C)(C)[C@@H]1CN[C@@H](C(=O)O)C1; Trp(1-CH2COOH) = N[C@@H](Cc1cn(CC(=O)O)c2ccccc12)C(=O)O; Phe(4-SO2NH2) = N[C@@H](Cc1ccc(S(N)(=O)=O)cc1)C(=O)O; Trp(7-CN) = N#Cc1cccc2c(C[C@H](N)C(=O)O)c[nH]c12; X27 = O=C(O)c1ccc(C[C@H](N[*:1])C(=O)[*:2])cc1F; Phe(3-CONH2) = NC(=O)c1cccc(C[C@H](N)C(=O)O)c1; Phe(4-CONH2) = NC(=O)c1ccc(C[C@H](N)C(=O)O)cc1; Phe(4-COOH) = N[C@@H](Cc1ccc(C(=O)O)cc1)C(=O)O; Trp(7-aza) = N[C@@H](Cc1c[nH]c2ncccc12)C(=O)O; Pip(5R-OH) = O=C(O)[C@@H]1CC[C@@H](O)CN1; X1 = O=C([C@@H]1CC[C@H](N[*:1])C1)[*:2]; Gly(Nα-CH2CH2CONH2) = NC(=O)CCNCC(=O)O; Pip(4-aza) = O=C(O)[C@@H]1CNCCN1; 4Pal = N[C@@H](Cc1ccncc1)C(=O)O; dHyp = O=C(O)[C@H]1C[C@H](O)CN1; Ahp(2) = CCCCC[C@H](N)C(=O)O; αMeS = C[C@](N)(CO)C(=O)O; Carboxymethyl = O=C(O)C*; Nle = CCCC[C@H](N)C(=O)O; Sar = CNCC(=O)O

The target of experiment [1] is T1, human TNFR1 extracellular domain (ECD) protein (Homo sapiens, UniProt P19438).
T1 construct: HRV 3C protease cleavage site (C); 6His (C, cleaved yes); made in house; host or cells: Sf21 insect cells (baculovirus), secreted
T1 sequence (P19438 30-211): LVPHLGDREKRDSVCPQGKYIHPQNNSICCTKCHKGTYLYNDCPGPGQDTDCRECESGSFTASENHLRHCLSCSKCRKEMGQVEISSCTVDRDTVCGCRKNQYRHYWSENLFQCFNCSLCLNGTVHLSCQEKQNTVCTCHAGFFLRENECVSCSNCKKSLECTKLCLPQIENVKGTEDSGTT
Kind of experiment: SPR binding affinity to captured human TNFR1 ECD. The procedure, abridged: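 Biotinylated avi-tagged human TNFR1 or TNFR2 ECD, expressed in Sf21 insect cells, captured on streptavidin SPR chip; peptide analytes run in 10 mM HEPES pH 7.4, 150 mM NaCl, 3 mM EDTA, 0.05% P20, 2% DMSO. kon and koff measured, affinity KA calculated.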

For experiment [2], the target named is T2, TNFα-induced NF-κB signal transduction pathway (TNFR1 signaling) in THP-1 cells (Homo sapiens, UniProt P19438).
T2 sequence (P19438 30-455): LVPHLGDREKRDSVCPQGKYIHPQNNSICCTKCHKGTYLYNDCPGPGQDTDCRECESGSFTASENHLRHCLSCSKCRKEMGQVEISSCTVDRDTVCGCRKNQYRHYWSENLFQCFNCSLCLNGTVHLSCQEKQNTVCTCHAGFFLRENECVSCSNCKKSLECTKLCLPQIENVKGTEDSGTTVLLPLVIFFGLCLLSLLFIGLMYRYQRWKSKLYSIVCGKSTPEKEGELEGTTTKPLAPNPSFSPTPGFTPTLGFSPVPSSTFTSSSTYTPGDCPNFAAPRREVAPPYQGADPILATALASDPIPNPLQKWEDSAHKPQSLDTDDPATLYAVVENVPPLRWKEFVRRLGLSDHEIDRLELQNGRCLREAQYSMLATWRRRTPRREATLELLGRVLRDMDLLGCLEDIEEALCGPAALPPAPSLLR
Kind of experiment: THP-1 Lucia NF-κB reporter cell assay, inhibition of TNFα-induced NF-κB signaling. The settings on record: THP-1 NF-κB Lucia reporter cells, 10 ng/mL TNFα, 16-18 h, secreted luciferase; read-out: THP-1 IC50. Format: cell-based. The essentials: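 Inhibition of TNFR1-driven NF-κB activation was measured as luminescence of secreted reporter luciferase following overnight (16-18 h) stimulation with 10 ng/mL TNFα.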

Consider `CCCC[C@@H]1NC(=O)[C@@H]2CC[C@@H](C2)NC(=O)[C@H]([C@@H](C)c2c[nH]c3c(OC)cccc23)NC(=O)CN(C)C(=O)[C@H](Cc2ccc(C(=O)O)cc2)NC(=O)[C@H](Cc2ccc(S(N)(=O)=O)cc2)NC(=O)[C@](C)(CO)NC(=O)[C@H](Cc2c[nH]c3c(C#N)cccc23)NC(=O)[C@H](Cc2ccc(C(=O)O)cc2)NC(=O)[C@H](CC(N)=O)NC(=O)[C@H]2C[C@H](OCC(=O)O)CN2C(=O)[C@H](Cc2c[nH]c3ncccc23)NC(=O)[C@@H]2CC[C@@H](O)CN2C(=O)[C@H](Cc2ccncc2)NC1=O` [SEQ ID NO. 4] (cyclo([4Pal][Pip(5R-OH)][Trp(7-aza)][dHyp](Carboxymethyl)N[Phe(4-COOH)][Trp(7-CN)][αMeS][Phe(4-SO2NH2)][Phe(4-COOH)][Sar][Trp(βS-Me,7-OMe)][X1][Nle])), for which the pKd in experiment [1] is 10.00. For the same compound, the pIC50 in experiment [2] was 9.30.

Consider `CCCC[C@@H]1NC(=O)[C@@H]2CC[C@@H](C2)NC(=O)[C@H]([C@@H](C)c2c[nH]c3c(OC)cccc23)NC(=O)CN(C)C(=O)[C@H](Cc2ccc(C(=O)O)cc2)NC(=O)[C@H](Cc2ccc(C(N)=O)cc2)NC(=O)[C@](C)(CO)NC(=O)[C@H](Cc2c[nH]c3c(C#N)cccc23)NC(=O)[C@H](Cc2ccc(C(=O)O)c(F)c2)NC(=O)[C@H](CC(N)=O)NC(=O)[C@H]2C[C@H](O)CN2C(=O)[C@H](Cc2c[nH]c3ncccc23)NC(=O)[C@@H]2CC[C@@H](O)CN2C(=O)[C@H](Cc2ccncc2)NC1=O` [SEQ ID NO. 8] (cyclo([4Pal][Pip(5R-OH)][Trp(7-aza)][dHyp]N[X27][Trp(7-CN)][αMeS][Phe(4-CONH2)][Phe(4-COOH)][Sar][Trp(βS-Me,7-OMe)][X1][Nle])), for which the negative logarithm of the Kd (pKd) in experiment [1] is 10.10. Further, the pIC50 in experiment [2] is 9.15.

For `CCCC[C@@H]1NC(=O)[C@@H]2CC[C@@H](C2)NC(=O)[C@H]([C@@H](C)c2c[nH]c3c(OC)cccc23)NC(=O)CN(C)C(=O)[C@H](Cc2ccc(C(N)=O)cc2)NC(=O)[C@H](Cc2ccc(S(N)(=O)=O)cc2)NC(=O)[C@](C)(CO)NC(=O)[C@H](Cc2c[nH]c3c(C#N)cccc23)NC(=O)[C@H](Cc2ccc(C(=O)O)cc2)NC(=O)[C@H](CC(N)=O)NC(=O)[C@H]2C[C@H]([N+](C)(C)C)CN2C(=O)[C@H](Cc2cn(CC(=O)O)c3ccccc23)NC(=O)[C@@H]2CC[C@@H](O)CN2C(=O)[C@H](Cc2ccncc2)NC1=O` [SEQ ID NO. 9] (cyclo([4Pal][Pip(5R-OH)][Trp(1-CH2COOH)][dPro(trans-4-NMe3+)]N[Phe(4-COOH)][Trp(7-CN)][αMeS][Phe(4-SO2NH2)][Phe(4-CONH2)][Sar][Trp(βS-Me,7-OMe)][X1][Nle])), the pKd in experiment [1] is 10.00. The negative logarithm of the IC50 (pIC50) in experiment [2] is 9.22.

Turning to `CCCCC[C@@H]1NC(=O)[C@@H]2CC[C@@H](C2)NC(=O)[C@H]([C@@H](C)c2c[nH]c3c(OC)cccc23)NC(=O)CN(C)C(=O)[C@H](Cc2cccc(C(N)=O)c2)NC(=O)[C@H](Cc2ccc(C(N)=O)cc2)NC(=O)[C@](C)(CO)NC(=O)[C@H](Cc2c[nH]c3c(C#N)cccc23)NC(=O)[C@H](Cc2ccc(C(=O)O)cc2)NC(=O)[C@H](CC(N)=O)NC(=O)CN(CCC(N)=O)C(=O)[C@H](Cc2c[nH]c3ccccc23)NC(=O)[C@@H]2CNCCN2C(=O)[C@H](Cc2ccncc2)NC1=O` [SEQ ID NO. 10] (cyclo([4Pal][Pip(4-aza)]W[Gly(Nα-CH2CH2CONH2)]N[Phe(4-COOH)][Trp(7-CN)][αMeS][Phe(4-CONH2)][Phe(3-CONH2)][Sar][Trp(βS-Me,7-OMe)][X1][Ahp(2)])), the pKd in experiment [1] was 10.10. The pIC50 in experiment [2] was 9.10.
